Reference: patent US20090264471A1, “Compounds, Compositions and Methods Comprising Triazole Derivatives” (Institute for OneWorld Health, priority 2008, published 2009)

target: T1, CFTR (Homo sapiens, UniProt P13569); assay: T84 assay (FLIPR membrane potential dye, forskolin/IBMX-stimulated CFTR channel activity); format: cell-based; conditions: human colonic T84 cells, average of at least 2 runs unless annotated n = 1
T1 construct: results in the phosphorylation and opening of CFTR anion channels; host or cells: Human colonic T84 cells
Description: (§1) For example, Human colonic T84 cells can be acquired from the European Collection of Cell Cultures (ECACC) and grown in standard culture conditions as described by the supplier. On the day before assay 25,000 T84 cells per well are plated into standard black walled, clear bottom 384-well assay plates in standard growth medium consisting of DMEM:F12 with 10% FBS and incubated overnight. On the day of the assay the plates are washed using a standard assay buffer (HBSS with 10 mM Hepes) and incubated for 15 minutes in serum free cell culture medium before the addition of a commercially available membrane potential sensitive fluorescent dye (FLIPR Red membrane potential dye, Molecular Devices Corporation). T84 cells are incubated with the FLIPR Red membrane potential dye for 45 minutes in the presence and absence of test compound before being transferred to a commercially available fluorescence imaging plate reader (FLIPR384, Molecular Devices Corporation). Fluorescence levels are monitored continuously every second for 150 seconds; after an initial 10 second baseline, CFTR channel activity is stimulated through the addition of 10 μM forskolin in the presence of 100 μM of the phosphodiesterase inhibitor iso-butyl-methylxanthine (IBMX). Addition of the forskolin leads to the activation of intracellular adenylyl cylase 1, elevating cAMP levels and results in the phosphorylation and opening of CFTR anion channels. CFTR channel opening causes chloride ion efflux and subsequent depolarization of the cells, which is measured by an increase in fluorescence. CFTR inihibitor compounds prevent cell depolarization and the associated increase in fluorescence.
as §1, with “Human colonic” for “For example, Human colonic”, “T84 cells are acquired from” for “T84 cells can be acquired from”, “(ECACC) and are grown in” for “(ECACC) and grown in”, “fluorescence. CFTR inhibitor compounds prevent” for “fluorescence. CFTR inihibitor compounds prevent”

T1 sequence (P13569 whole entry): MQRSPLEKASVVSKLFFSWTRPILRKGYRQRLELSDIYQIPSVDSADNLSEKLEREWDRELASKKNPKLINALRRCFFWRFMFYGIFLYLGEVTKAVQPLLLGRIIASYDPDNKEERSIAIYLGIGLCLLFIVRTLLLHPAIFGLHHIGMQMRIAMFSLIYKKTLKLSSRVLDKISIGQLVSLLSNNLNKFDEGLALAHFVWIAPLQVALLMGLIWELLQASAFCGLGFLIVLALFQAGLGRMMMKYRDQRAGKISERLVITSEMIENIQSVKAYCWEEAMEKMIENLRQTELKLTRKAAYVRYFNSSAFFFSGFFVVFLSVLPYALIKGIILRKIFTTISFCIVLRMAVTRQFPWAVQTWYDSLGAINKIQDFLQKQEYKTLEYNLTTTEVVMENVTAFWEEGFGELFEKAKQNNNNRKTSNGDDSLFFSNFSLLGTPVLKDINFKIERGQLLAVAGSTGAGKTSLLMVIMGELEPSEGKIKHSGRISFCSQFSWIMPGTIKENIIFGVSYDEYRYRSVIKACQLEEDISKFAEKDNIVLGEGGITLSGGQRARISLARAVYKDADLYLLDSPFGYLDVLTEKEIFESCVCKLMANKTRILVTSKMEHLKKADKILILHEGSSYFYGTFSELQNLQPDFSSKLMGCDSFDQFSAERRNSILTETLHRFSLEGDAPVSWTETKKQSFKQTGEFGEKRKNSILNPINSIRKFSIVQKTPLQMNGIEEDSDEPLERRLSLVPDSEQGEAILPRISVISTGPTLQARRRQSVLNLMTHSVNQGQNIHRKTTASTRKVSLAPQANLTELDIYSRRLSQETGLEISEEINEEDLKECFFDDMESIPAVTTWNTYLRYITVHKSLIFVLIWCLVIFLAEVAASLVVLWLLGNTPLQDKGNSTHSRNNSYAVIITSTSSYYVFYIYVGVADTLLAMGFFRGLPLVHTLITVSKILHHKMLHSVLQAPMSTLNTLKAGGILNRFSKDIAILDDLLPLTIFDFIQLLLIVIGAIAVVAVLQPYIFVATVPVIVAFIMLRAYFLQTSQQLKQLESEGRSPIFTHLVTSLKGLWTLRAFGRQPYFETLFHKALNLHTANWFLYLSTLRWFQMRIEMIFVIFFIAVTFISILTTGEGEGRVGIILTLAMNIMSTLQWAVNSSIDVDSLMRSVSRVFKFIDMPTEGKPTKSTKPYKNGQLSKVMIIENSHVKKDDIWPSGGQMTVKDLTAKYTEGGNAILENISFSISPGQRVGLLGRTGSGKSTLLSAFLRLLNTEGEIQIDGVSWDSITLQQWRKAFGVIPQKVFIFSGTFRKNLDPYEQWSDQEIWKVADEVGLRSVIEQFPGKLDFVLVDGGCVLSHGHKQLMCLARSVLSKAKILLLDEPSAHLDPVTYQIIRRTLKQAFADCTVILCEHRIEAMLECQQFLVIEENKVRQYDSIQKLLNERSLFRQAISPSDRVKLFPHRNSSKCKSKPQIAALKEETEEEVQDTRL

SMILES	IC50 [µM]
O=C(NCc1ccccc1C(F)(F)F)c1n[nH]c(-c2cc(Cl)c(O)c(Cl)c2)n1 [Compound 85, 5-(3,5-dichloro-4-hydroxyphenyl)-N-(2-(trifluoromethyl)benzyl)-1H-1,2,4-triazole-3-carboxamide]	18
O=C(NC(c1ccccc1)c1ccccc1)c1n[nH]c(-c2cc(Cl)c(O)c(Cl)c2)n1 [Compound 88, N-benzhydryl-5-(3,5-dichloro-4-hydroxyphenyl)-1H-1,2,4-triazole-3-carboxamide]	7.33
CN(Cc1cccc(C(F)(F)F)c1)C(=O)c1n[nH]c(-c2cc(Cl)c(O)c(Cl)c2)n1 [Compound 90, 5-(3,5-dichloro-4-hydroxyphenyl)-N-methyl-N-(3-(trifluoromethyl)benzyl)-1H-1,2,4-triazole-3-carboxamide]	24.1
O=C(NCc1ccc(F)c(F)c1)c1n[nH]c(-c2cc(Cl)c(O)c(Cl)c2)n1 [Compound 84, 5-(3,5-dichloro-4-hydroxyphenyl)-N-(3,4-difluorobenzyl)-1H-1,2,4-triazole-3-carboxamide]	15.6
O=C(NCc1cccc(OC(F)(F)F)c1)c1n[nH]c(-c2cc(Cl)c(O)c(Cl)c2)n1 [Compound 86, 5-(3,5-dichloro-4-hydroxyphenyl)-N-(3-(trifluoromethoxy)benzyl)-1H-1,2,4-triazole-3-carboxamide]	22.2
O=C(c1nc(-c2cc(Br)c(O)c(Br)c2)n[nH]1)N1CCC(Cc2ccccc2)CC1 [Compound 80, (4-Benzylpiperidin-1-yl)(3-(3,5-dibromo-4-hydroxyphenyl)-1H-1,2,4-triazol-5-yl)methanone]	10.5
CN(Cc1ccc(Cl)cc1)C(=O)c1n[nH]c(-c2cc(Cl)c(O)c(Cl)c2)n1 [Compound 93, N-(4-chlorobenzyl)-5-(3,5-dichloro-4-hydroxyphenyl)-N-methyl-1H-1,2,4-triazole-3-carboxamide]	25
O=C(NCc1ccc(C(F)(F)F)cc1)c1n[nH]c(-c2cc(Cl)c(O)c(Cl)c2)n1 [Compound 87, 5-(3,5-dichloro-4-hydroxyphenyl)-N-(4-(trifluoromethyl)benzyl)-1H-1,2,4-triazole-3-carboxamide]	25.1
CN(Cc1ccc(Cl)c(Cl)c1)C(=O)c1n[nH]c(-c2cc(Cl)c(O)c(Cl)c2)n1 [Compound 95, 5-(3,5-Dichloro-4-hydroxyphenyl)-N-(3,4-dichlorobenzyl)-N-methyl-1H-1,2,4-triazole-3-carboxamide]	7.92
CN(Cc1ccc(C(C)(C)C)cc1)C(=O)c1n[nH]c(-c2cc(Cl)c(O)c(Cl)c2)n1 [Compound 96, N-(4-tert-butylbenzyl)-5-(3,5-dichloro-4-hydroxyphenyl)-N-methyl-1H-1,2,4-triazole-3-carboxamide]	7.53
O=C(NCc1ccc(OC(F)(F)F)cc1)c1n[nH]c(-c2cc(Cl)c(O)c(Cl)c2)n1 [Compound 94, 5-(3,5-dichloro-4-hydroxyphenyl)-N-(4-(trifluoromethoxy)benzyl)-1H-1,2,4-triazole-3-carboxamide]	9.11

Stronger by IC50, values ahead:

IC50 [µM]	SMILES
3.28	O=C(NCc1ccc(Oc2ccccc2)cc1)c1n[nH]c(-c2cc(Cl)c(O)c(Cl)c2)n1 [Compound 92, 5-(3,5-dichloro-4-hydroxyphenyl)-N-(4-phenoxybenzyl)-1H-1,2,4-triazole-3-carboxamide]
1.57	O=C(NCc1ccc(Cl)c(Cl)c1)c1n[nH]c(-c2cc(Cl)c(O)c(Cl)c2)n1 [Compound 91, 5-(3,5-dichloro-4-hydroxyphenyl)-N-(3,4-dichlorobenzyl)-1H-1,2,4-triazole-3-carboxamide]
5.25	O=C(NCc1cc(F)c(F)c(F)c1)c1n[nH]c(-c2cc(Cl)c(O)c(Cl)c2)n1 [Compound 89, 5-(3,5-dichloro-4-hydroxyphenyl)-N-(3,4,5-trifluorobenzyl)-1H-1,2,4-triazole-3-carboxamide]
7.05	O=C(c1n[nH]c(-c2cc(Cl)c(O)c(Cl)c2)n1)N1CCC(Cc2ccccc2)CC1 [Compound 82, (4-benzylpiperidin-1-yl)(5-(3,5-dichloro-4-hydroxyphenyl)-1H-1,2,4-triazol-3-yl)methanone]
3.23	O=C(NC(c1ccccc1)c1ccccc1)c1nc(-c2cc(Br)c(O)c(Br)c2)n[nH]1 [Compound 78, N-benzhydryl-3-(3,5-dibromo-4-hydroxyphenyl)-1H-1,2,4-triazole-5-carboxamide]
6.9	O=C(c1n[nH]c(-c2cc(Cl)c(O)c(Cl)c2)n1)N1CCN(c2cccc(C(F)(F)F)c2)CC1 [Compound 83, (5-(3,5-dichloro-4-hydroxyphenyl)-1H-1,2,4-triazol-3-yl)(4-(3-(trifluoromethyl)phenyl)piperazin-1-yl)methanone]
1.51	O=C(NCc1ccc(Oc2ccccc2)cc1)c1nc(-c2cc(Br)c(O)c(Br)c2)n[nH]1 [Compound 81, 3-(3,5-dibromo-4-hydroxyphenyl)-N-(4-phenoxybenzyl)-1H-1,2,4-triazole-5-carboxamide]
6.93	O=C(c1nc(-c2cc(Br)c(O)c(Br)c2)n[nH]1)N1CCN(c2cccc(C(F)(F)F)c2)CC1 [Compound 79, (3-(3,5-dibromo-4-hydroxyphenyl)-1H-1,2,4-triazol-5-yl)(4-(3-(trifluoromethyl)phenyl)piperazin-1-yl)methanone]
6.8	O=C(NCc1cc(Cl)cc(Cl)c1)c1n[nH]c(-c2cc(Cl)c(O)c(Cl)c2)n1 [Compound 97, 5-(3,5-dichloro-4-hydroxyphenyl)-N-(3,5-dichlorobenzyl)-1H-1,2,4-triazole-3-carboxamide]
